In ChEMBL document CHEMBL4296183, “CO-ADD screening of NIH NCI Natural Product Set III” (2020):
In brackets after ≈: the same amount, converted by molar mass.

How the values were obtained:
HEK293 = assay: cells; format: functional; conditions: Homo sapiens, ATCC CRL1573, HEK293; ASSAY_TEST Inhibition of Cell Viability; detection method Resazurin; Fluorescence (ex560/em590); MEDIA DMEM with 10% FBS; plate type 384well; TC; CORNING #3712; time 18 hr
Staphylococcus aureus = assay: microbe, parasite or virus in culture; conditions: ATCC 43300, 18 h, ASSAY_TEST Inhibition of Bacterial Growth, detection method Absorption (OD600), MEDIA CAMHB, plate type 384well, NBS, CORNING #3640
Description: Antibacterial activity against Staphylococcus aureus MRSA ATCC 43300 (CO-ADD:GP_020); MIC in CAMBH media, using NBS plates, by OD(600)

Escherichia coli = assay: microbe, parasite or virus in culture; conditions: ATCC 25922, 18 h, ASSAY_TEST Inhibition of Bacterial Growth, detection method Absorption (OD600), MEDIA CAMHB, plate type 384well, NBS, CORNING #3640
Description: Antibacterial activity against Escherichia coli ATCC 25922 (CO-ADD:GN_001); MIC in CAMBH media using NBS plates, by OD(600)

Klebsiella pneumoniae = assay: microbe, parasite or virus in culture; conditions: ATCC 700603, 18 h, ASSAY_TEST Inhibition of Bacterial Growth, detection method Absorption (OD600), MEDIA CAMHB, plate type 384well, NBS, CORNING #3640
Description: Antibacterial activity against Klebsiella pneumoniae MDR ATCC 70063 (CO-ADD:GN_003); MIC in CAMBH media using NBS plates, by OD(600)

Pseudomonas aeruginosa = assay: microbe, parasite or virus in culture; conditions: ATCC 27853, 18 h, ASSAY_TEST Inhibition of Bacterial Growth, detection method Absorption (OD600), MEDIA CAMHB, plate type 384well, NBS, CORNING #3640
Description: Antibacterial activity against Pseudomonas aeruginosa ATCC 27853 (CO-ADD:GN_042); MIC in CAMBH media using NBS plates, by OD(600)

Acinetobacter baumannii = assay: microbe, parasite or virus in culture; conditions: ATCC 19606, 18 h, ASSAY_TEST Inhibition of Bacterial Growth, detection method Absorption (OD600), MEDIA CAMHB, plate type 384well, NBS, CORNING #3640
Description: Antibacterial activity against Acinetobacter baumannii ATCC 19606 (CO-ADD:GN_034); MIC in CAMBH media using NBS plates, by OD600

Candida albicans = assay: microbe, parasite or virus in culture; conditions: ATCC 90028, ASSAY_TEST Inhibition of Fungal Growth, detection method Absorption (OD530), plate type 384well, NBS, CORNING #3640
Description: Antifungal activity against Candida albicans ATCC 90028 (CO-ADD:FG_001); MIC in YNB media using NBS plates, by OD630

Description for Cryptococcus neoformans: Antifungal activity against Cryptococcus neoformans H99 ATCC 208821 (CO-ADD:FG_002); MIC in YNB media using NBS plates, by Resazurin OD(600-570)

SMILES	CC50 (HEK293) [µM]	MIC (Cryptococcus neoformans) [µM]	MIC (Staphylococcus aureus) [µM]	MIC (Escherichia coli) [µM]	MIC (Klebsiella pneumoniae) [µM]	MIC (Pseudomonas aeruginosa) [µM]	MIC (Acinetobacter baumannii) [µM]	MIC (Candida albicans) [µM]
CC1OC(=O)C(C(C)C)NC(=O)C(C(C)C)OC(=O)C(C(C)C)NC(=O)C(C)OC(=O)C(C(C)C)NC(=O)C(C(C)C)OC(=O)C(C(C)C)NC(=O)C(C)OC(=O)C(C(C)C)NC(=O)C(C(C)C)OC(=O)C(C(C)C)NC1=O (configuration not stated)	> 10	> 10	> 10	> 10	> 10	> 10	> 10	0.625 (≈ 0.695 µg/mL)
COC1=C(N)C(=O)c2nc(-c3nc(C(=O)O)c(C)c(-c4ccc(OC)c(OC)c4O)c3N)ccc2C1=O [STREPTONIGRIN]	0.115	1.25 (≈ 0.633 µg/mL)	≤ 0.0781	5 (≈ 2.53 µg/mL)	> 10	10 (≈ 5.06 µg/mL)	> 10	0.156 (≈ 0.0792 µg/mL)
COc1cc(C)cc2c(-c3c(O)cc(O)c4c3C[C@H](C)N[C@H]4C)cc(-c3cc(-c4c(O)cc(O)c5c4C[C@H](C)N[C@H]5C)c4cc(C)cc(OC)c4c3O)c(O)c12	> 10	> 10	> 10	> 10	> 10	> 10	> 10	> 10
CC(=O)C(=O)NC1/C=C(C)\C=C/C(O)C/C=C(C)\C=C/C(O)CC2OC(=O)C1(C)C(=O)C2C (configuration not stated)	> 10	> 10	10 (≈ 4.6 µg/mL)	> 10	> 10	> 10	> 10	> 10
